Source: paper PMC5762913, “Probing the molecular basis of hERG drug block with unnatural amino acids” (Scientific Reports, 2018)

Tests used:
[1] = tested on: nicotinic receptor α-subunit Trp-149 doubly fluorinated; parameters: method as in PMID 9770444; settings: doubly fluorinating Trp-149 in the α-subunit; cited from earlier work
hERG Tyr652 and Phe656 = assay: Assessment of cation-π interaction in hERG drug block across fluorinated Phe series; settings: judged from IC50 across Y652 and F656 fluorinated Phe series
Excerpt: Testing whether a cation-π relationship occurs at an aromatic residue can be accomplished by measuring the impact of substitution with a series of fluorinated aromatic amino acids. Successive fluorinations of aromatic side chains yield additive reductions in ability to donate π electrons to cation-π interactions[30]. Through the use of nonsense suppression, we incorporated singly and doubly fluorinated phenylalanine derivatives at both Tyr652 and Phe656. These UAA also have the advantage of providing a sterically conservative means of studying the specific nature of interactions of individual residues. If hERG drug interactions depend largely on cation-π binding interactions at sites Tyr652 and Phe656, then successive fluorinations at these sites should decrease drug affinity in a linear manner[30].
This protocol is repeated in successive sweeps as either control or drug-containing solutions flow into the bath chamber and over the oocyte. […] The steady state current at −50 mV reached at each drug concentration was normalized to the steady state current at −50 mV with no drug. From these normalized values, a concentration-response curve was generated and fit with a Hill equation. IC50 and Hill coefficient values were generated from each Hill fit. […]

hERG S631A = settings: S631A mutation which abolishes inactivation, versus WT; cited from earlier work

Row | Compound | reduction of potency [1] | Cation – π behaviour? (hERG Tyr652 and Phe656) | potency of block (hERG S631A)
1 | CC(=O)OCC[N+](C)(C)C [acetyl choline] | nearly an order of magnitude |  | 
2 | CN(CCOc1ccc(NS(C)(=O)=O)cc1)CCc1ccc(NS(C)(=O)=O)cc1 [Dofetilide, dofetilide] |  | No | reduced
3 | C=C[C@H]1C[N@@]2CC[C@H]1C[C@@H]2[C@@H](O)c1ccnc2ccc(OC)cc12 [Quinidine, quinidine] |  | No | reduced
